{"source": "patent US20240277631A1", "about": "“SMALL MOLECULE DRUG (ELP-004) TO PREVENT BONE LESIONS CAUSED BY MULTIPLE MYELOMA” (West Virginia University Board of Governors on behalf of …, priority 2023, published 2024)", "key": {"[1]": {"assay": "ability to cross the blood brain barrier", "source_text": "ELP-004 has been evaluated for its ability to cross the blood brain barrier. […] Other medications, such as but not limited to bupropion, are known to cause problems due to dopamine transporter binding."}, "CYP2B6": {"target": "T1, CYP2B6 (Homo sapiens, UniProt P20813)", "T1 sequence (P20813 1-491)": "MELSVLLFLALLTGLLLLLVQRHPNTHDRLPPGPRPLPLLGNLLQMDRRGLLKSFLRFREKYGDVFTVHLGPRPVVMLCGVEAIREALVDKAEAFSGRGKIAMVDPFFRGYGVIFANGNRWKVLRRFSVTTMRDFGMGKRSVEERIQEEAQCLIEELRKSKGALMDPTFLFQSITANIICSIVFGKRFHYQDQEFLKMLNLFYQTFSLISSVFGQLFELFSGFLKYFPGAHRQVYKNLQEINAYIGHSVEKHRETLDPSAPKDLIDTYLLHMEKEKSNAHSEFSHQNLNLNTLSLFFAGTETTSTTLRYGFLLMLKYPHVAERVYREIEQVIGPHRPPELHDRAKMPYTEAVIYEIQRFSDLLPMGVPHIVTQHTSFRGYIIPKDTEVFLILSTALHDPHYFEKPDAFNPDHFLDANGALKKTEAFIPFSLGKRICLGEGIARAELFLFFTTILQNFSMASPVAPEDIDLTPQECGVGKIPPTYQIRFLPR", "assay": "stability with recombinant CYP2B6", "type": "in vitro ADME", "details": "recombinant CYP2B6, intrinsic clearance, read-out: Recombinant CYP CLINT", "description": "(§1) Depicted in table 2 is cytochrome P450 phenotyping and inhibition by ELP-004. The stability of ELP-004 was tested in the presence of recombinant enzymes CYP1A2, CYP2B6, CYP2C8, CYP2C9, CYP2C19, CYP2D6, and CYP3A4. ELP-004 (1 μM) was incubated with recombinant enzymes and NADPH. The amount of ELP-004 remaining at each timepoint was analyzed by LC-MS/MS. Incubations in control recombinant enzymes were also performed to assess non-enzymatic mediated stability. The intrinsic clearance of ELP-004 was determined. […] A decrease in the formation of the metabolite compared to vehicle control is used to calculate an IC50 value. Metabolite peak area ratio response as a percentage of vehicle control is plotted against the test compound concentration."}, "[2]": {"assay": "pharmacokinetics in mice, i.v., p.o., s.c.", "type": "in vivo, female C57B16 mice", "description": "ELP-004 was reconstituted in 20% hydroxypropyl-beta-cyclodextrin (HPbCD) and administered to female C57B16 mice (3/timepoint/route of administration) in the fed state. Following i.v. (2 mg/kg) […] from whole blood at 5, 15, and 30 min and at 1, 2, 4, 7, and 24 h. ELP-004 concentration was measured by LC-MS/MS. The data was fit to a two-compartment model and slopes for the a and B elimination were determined.\nDepicted in table 1 is pharmacokinetic data of ELP-004 administered via i.v, p.o., and s.c. ELP-004 was reconstituted in 20% hydroxypropyl-beta-cyclodextrin (HPbCD) and administered to female C57B16 mice (3/timepoint/route of administration) in the fed state. Following i.v. (2 mg/kg), s.c. (2 mg/kg), or p.o. (10 mg/kg) administration, plasma was isolated from whole blood at 5, 15, and 30 min and at 1, 2, 4, 7, and 24 h. Plasma from p.o. was not isolated at 5 min. ELP-004 concentration was measured by LC-MS/MS (see below). The limit of quantification was 10 ng/ml and samples below that were not used in the analyses. PK parameters were calculated using Phoenix WinNonlin (Certara, NJ, USA)."}, "Murine BMSMCs": {"test_system": "Murine BMSMCs", "assay": "TNFα-induced osteoclast fusion (TRAP, multinucleation, marker mRNA)", "type": "cell-based", "details": "RANKL/TNFα", "description": "(A_C) Murine BMSMCs were grown for up to 21 days in media supplemented with 50 ng/ml m-CSF, […] RANKL and 2 ng/ml TNFα. Each experiment was repeated a minimum of three times. Cells were fixed and stained for Tartrate Resistant Acid Phosphatase (TRAP)_activity at days 1, 7, 14 and 21. In schematic A, the number of TRAP positive osteoclast-like cells (out of 100 cells) were counted for each time point; TRAP intensity was also calculated. In schematic B, at each time point the number of nuclei for each cell was counted and the average number of nuclei per cell for 100 cells is shown. […] The expression patterns of osteoclast markers was unaffected by ELP-004, indicating selective inhibition of specific features of osteoclastogenesis."}, "CYP2C8": {"target": "T2, CYP2C8 (Homo sapiens, UniProt P10632)", "T2 sequence (P10632 1-490)": "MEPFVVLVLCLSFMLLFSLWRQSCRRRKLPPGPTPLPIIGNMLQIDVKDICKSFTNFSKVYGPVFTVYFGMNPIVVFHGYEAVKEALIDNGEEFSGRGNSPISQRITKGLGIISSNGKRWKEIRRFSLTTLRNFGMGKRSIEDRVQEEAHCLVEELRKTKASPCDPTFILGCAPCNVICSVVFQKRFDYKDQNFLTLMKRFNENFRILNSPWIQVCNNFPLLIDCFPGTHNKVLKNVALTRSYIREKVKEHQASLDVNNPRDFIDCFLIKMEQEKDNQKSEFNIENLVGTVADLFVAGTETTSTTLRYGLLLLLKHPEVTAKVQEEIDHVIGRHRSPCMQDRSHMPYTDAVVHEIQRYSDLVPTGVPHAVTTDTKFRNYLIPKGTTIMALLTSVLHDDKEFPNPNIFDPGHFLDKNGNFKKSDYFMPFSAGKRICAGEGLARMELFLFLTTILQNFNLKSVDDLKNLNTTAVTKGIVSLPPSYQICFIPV", "assay": "stability with recombinant CYP2C8", "type": "in vitro ADME", "details": "recombinant CYP2C8, intrinsic clearance, read-out: Recombinant CYP CLINT", "description": "as §1"}, "CYP2C19": {"target": "CYP2C19 (Homo sapiens, UniProt P33261)", "sequence (P33261 whole entry)": "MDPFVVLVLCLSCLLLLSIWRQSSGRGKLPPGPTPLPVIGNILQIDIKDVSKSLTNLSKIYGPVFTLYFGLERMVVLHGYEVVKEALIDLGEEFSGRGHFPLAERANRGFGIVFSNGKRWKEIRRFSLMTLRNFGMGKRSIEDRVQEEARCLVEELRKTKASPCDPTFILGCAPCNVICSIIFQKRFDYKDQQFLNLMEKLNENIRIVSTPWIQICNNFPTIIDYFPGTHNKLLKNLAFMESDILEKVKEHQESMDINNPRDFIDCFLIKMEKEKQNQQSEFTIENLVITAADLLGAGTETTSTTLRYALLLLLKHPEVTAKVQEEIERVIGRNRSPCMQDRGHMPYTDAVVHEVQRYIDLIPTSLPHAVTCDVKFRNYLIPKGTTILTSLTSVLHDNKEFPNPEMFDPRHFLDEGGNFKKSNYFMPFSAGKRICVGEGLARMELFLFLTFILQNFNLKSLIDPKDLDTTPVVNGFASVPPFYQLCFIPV", "assay": "stability with recombinant CYP2C19", "type": "in vitro ADME", "details": "recombinant CYP2C19, intrinsic clearance, read-out: Recombinant CYP CLINT", "description": "as §1"}, "Jurkat cells": {"test_system": "Jurkat cells", "type": "cell-based", "design": "dose or concentration left out as unconfirmed", "details": "human", "description": "wherein each X is chlorine, Y is a methyl group, and R is an ethyl group. N-MeDCPA is synthesized as described in U.S. Pat. No. 10,682,320, which is incorporated by reference herein. ELP-004 (N-MeDCPA) precludes metabolizing to two toxic metabolites, N—OH-dichloroaniline and 6-OH-dichloroaniline. In vitro assays for toxicity caused by ELP-004 using Jurkat cells show 50% toxicity at […] and <2% toxicity at […].\nELP-004 (i.e. N-MeDCPA) was specifically developed to preclude metabolizing to two toxic metabolites, N—OH-dichloroaniline and 6-OH-dichloroaniline. In vitro assays for toxicity caused by ELP-004 using Jurkat cells show 50% toxicity at […] and <2% toxicity at […]."}}, "note": "Read-outs that look alike come from different tables or passages of the source."}
{"smiles": "CCC(=O)N(C)c1ccc(Cl)c(Cl)c1", "note": "[ELP-004, N-(3,4-dichlorophenyl)-N-methylpropanamide]", "values": [{"measurement": "crossing of the blood brain barrier", "setting": "[1]", "result": "does not cross the blood brain barrier"}, {"measurement": "microsomal CLint at 1 μM", "setting": "CYP2B6", "result": 0.815, "unit": "µL/min/mg"}, {"measurement": "time until essentially eliminated", "setting": "[2]; administered orally", "result": "≤ 4", "unit": "h"}, {"measurement": "C0", "setting": "[2]; female, C57B16, mouse, plasma, iv, i.v. 2 mg/kg", "result": 1220, "unit": "ng/mL"}, {"measurement": "TRAP activity", "setting": "Murine BMSMCs", "result": "completed abrogated"}, {"measurement": "expression patterns of osteoclast markers", "setting": "Murine BMSMCs", "result": "unaffected"}, {"measurement": "multinucleation", "setting": "Murine BMSMCs", "result": "severely attenuated"}, {"measurement": "microsomal CLint at 1 μM", "setting": "CYP2C8", "result": 0.219, "unit": "µL/min/mg"}, {"measurement": "microsomal CLint at 1 μM", "setting": "CYP2C19", "result": 0.279, "unit": "µL/min/mg"}, {"measurement": "toxicity", "setting": "Jurkat cells; 200", "result": "< 2", "unit": "%"}, {"measurement": "toxicity", "setting": "Jurkat cells; 800", "result": 50, "unit": "%"}]}
